Experimental data taken from patent US20030180396A1, “Method of effecting phosphorylation in eucaryotic cells using thiamine triphosphate” (INSTITUT PASTEUR, priority 1999, published 2003).
Entries after “also recorded” stand apart in the source; their conditions may differ. Like-named read-outs stand apart in the source and are kept apart here.

Experiments:
[1] = tested on: TTP-dependent kinase(s) (TTP-kinase, TTP-43K-kinase); assay: TTP-dependent phosphorylation of 43K rapsyn by endogenous kinase(s) in nAChR-rich postsynaptic membranes; assay type: biochemical, Torpedo marmorata; details: for IC50: FIG. 3A, preincubation with cold triphosphate, read-out: IC50, inhibition of TTP-dependent phosphorylation of 43K rapsyn; for Kd: read-out: KD (apparent dissociation constant) of 43K rapsyn phosphorylation
Method: (§1) nAChR-rich postsynaptic membranes (nAChR-membranes) were prepared from electric organs excised from freshly killed Torpedo marmorata (T.m.) (Biologie Marine, Arcachon) (3, 16).
(§2) [γ-^32P]-TTP (^32P-TTP) was synthesized (27). nAChR-membranes were phosphorylated with (7-8000 Ci/mol) ^32P-TTP or ^32P-ATP in 50 mM Tris-HCl pH 7.5, 5-15 mM MgCl2, 0.08% CHAPS, inhibitors of proteases at 4°-20° C. for 60-90 minutes. […] Coomassie blue staining was performed when necessary. Where specified, nAChR-membranes were treated with 5-20 mM diethylpyrocarbonate (DEPC.) (28) in 50 mM Na phosphate buffer pH 6.0 and 7.4 (20 min, 16° C.), prior to incubation with ^32P-TTP.
A purified extract containing the kinase responsible for the TTP dependent phosphorylation of histidine residues on rapsyn, is preincubated with increasing concentration of products inhibiting the enzymatic activity of said kinase (FIG. 3A).

mouse brain membranes = details: FIG. 8
[2] = tested on: endogenous protein kinase A (PKA); assay: ATP-dependent phosphorylation of 43K rapsyn in nAChR-rich postsynaptic membranes; assay type: biochemical, Torpedo marmorata
Method: as §1, §2

[3] = target: T1, Nucleoside diphosphate kinase (NDPK) (Dictyostelium discoideum, UniProt P22887); assay: Phosphorylation of NDPK with 32P-ATP or 32P-TTP as phosphodonor; assay type: biochemical; details: data not shown
T1 sequence (P22887 1-155): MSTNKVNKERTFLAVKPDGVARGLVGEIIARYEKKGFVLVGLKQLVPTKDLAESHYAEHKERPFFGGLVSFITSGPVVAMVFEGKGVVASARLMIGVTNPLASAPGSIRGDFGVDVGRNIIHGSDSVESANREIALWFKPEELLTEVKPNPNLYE
Method: NDPK is a highly conserved enzyme which plays a key role in growth and metastasis control (47). As the enzyme autophosphorylates histidine and presents a broad specificity, phosphorylation was assayed with TTP.

[4] = Chemical stability of the phosphate links of phosphorylated 43K rapsyn (TCA / KOH treatment); assay type: physicochemical, Torpedo marmorata; details: for P-aa stability (base): PVDF blot + base; for P-aa stability (acid): SDS-PAGE gel + acid
Method: For acid treatment, SDS-PAGE gels containing ^32P-ATP- or ^32P-TTP-treated membranes were cut and incubated with Tris buffer or 16% TCA at 90° C. (29, 30), washed, and analyzed. Equivalent amounts of 43K rapsyn were ensured by Coomassie blue staining. For base treatment, ^32P-labeled membranes were resolved by SDS-PAGE, electroblotted on polyvinylidene difluoride membrane (PVDF). Blots were dried at 55° C. to minimize protein loss, wet in methanol, washed with H2O, cut and incubated in water or 1N KOH at 46° C. and analyzed.

Molecule: thiamine triphosphate [TTP]
- effect on TTP-dependent phosphorylation of 43K rapsyn / TTP-kinase activity (in words) [1]: specifically inhibited
- IC50 [1]: ~40 µM
- Kd ([1]; FIG. 3C, dose dependent and saturable): 5 to 10 µM
- Kd ([1]; one membrane preparation): ~25 µM
- proteins phosphorylated in mouse brain membranes (mouse brain membranes): phosphorylated very few
- effect on 32P-ATP-dependent 43K rapsyn phosphorylation (in words) [2]: specifically inhibited

Molecule: calphostin
- effect on TTP-dependent phosphorylation of 43K rapsyn / TTP-kinase activity (in words) [1]: did not drastically alter

Molecule: O=S(=O)(NCCNC/C=C/c1ccc(Br)cc1)c1cccc2cnccc12 [H89]
- effect on TTP-dependent phosphorylation of 43K rapsyn / TTP-kinase activity (in words) [1]: did not drastically alter

Molecule: Nc1ncnc2c1ncn2[C@@H]1O[C@H](COP(=O)(O)OP(=O)(O)OP(=O)(O)O)[C@@H](O)[C@H]1O [ATP, adenosine triphosphate]
- effect on TTP-dependent phosphorylation of 43K rapsyn / TTP-kinase activity (in words) [1]: specifically inhibited
- IC50 [1]: ~500 µM
- effect on 32P-ATP-dependent 43K rapsyn phosphorylation (in words) [2]: specifically inhibited

Molecule: CCCCCCOC(=O)[C@]1(O)C[C@@H]2O[C@@]1(C)n1c3ccccc3c3c4c(c5c6ccccc6n2c5c31)C(=O)NC4 [KT5720]
- effect on TTP-dependent phosphorylation of 43K rapsyn / TTP-kinase activity (in words) [1]: did not drastically alter

Molecule: CN([C@@H](Cc1ccc(OS(=O)(=O)c2cccc3cnccc23)cc1)C(=O)N1CCN(c2ccccc2)CC1)S(=O)(=O)c1cccc2cnccc12 [KN62]
- effect on TTP-dependent phosphorylation of 43K rapsyn / TTP-kinase activity (in words) [1]: did not drastically alter

Molecule: Cc1ncc(C[n+]2csc(CCOP(=O)(O)OP(=O)(O)O[32P](=O)([O-])O)c2C)c(N)n1 [^32P-TTP, [γ-^32P]-TTP]
- concentration saturating 43K rapsyn phosphorylation ([1]; FIG. 3C): 25 to 50 µM
- phosphorylation of NDPK by the phosphodonor [3]: not

Molecule: Nc1ncnc2c1nc(Sc1ccc(Cl)cc1)n2[C@@H]1O[C@@H]2COP(=O)([O-])O[C@H]2[C@H]1O.[Na+] [8-CPT-cAMP, Adenosine 3′-5′-cyclic monophosphate, 8-(4-Chlorophenylthio)-sodium salt]
- effect on TTP-dependent phosphorylation of 43K rapsyn / TTP-kinase activity (in words) [1]: did not drastically alter

Molecule: [Mg+2] [Mg^2+]
- effect on TTP-dependent phosphorylation of 43K rapsyn / TTP-kinase activity (in words) [1]: enhanced

Molecule: CN[C@@H]1C[C@H]2O[C@@](C)([C@@H]1OC)n1c3ccccc3c3c4c(c5c6ccccc6n2c5c31)C(=O)NC4 [staurosporine]
- effect on TTP-dependent phosphorylation of 43K rapsyn / TTP-kinase activity (in words) [1]: did not drastically alter

Molecule: Nc1nc2c(ncn2[C@@H]2O[C@H](COP(=O)(O)OP(=O)(O)OP(=O)(O)O)[C@@H](O)[C@H]2O)c(=O)[nH]1 [GTP]
- IC50 [1]: ~1000 µM

Molecule: CCCCCCCCCCCCCC(=O)O[C@@H]1[C@@H](C)[C@@]2(O)[C@@H](C=C(CO)C[C@]3(O)C(=O)C(C)=C[C@@H]23)[C@@H]2C(C)(C)[C@]12OC(C)=O [TPA, phorbol-12-myristate-13-acetate]
- effect on TTP-dependent phosphorylation of 43K rapsyn / TTP-kinase activity (in words) [1]: did not drastically alter

Molecule: TNF-α
- effect on TTP-dependent phosphorylation of 43K rapsyn / TTP-kinase activity (in words) [1]: did not drastically alter

Molecule: CCOC(=O)OC(=O)OCC [DEPC, diethylpyrocarbonate]
- 43K rapsyn phosphorylation, % 32P ([1]; membranes pretreated with 5-20 mM DEPC, versus 100±19% in mock membranes): 20±2%

Molecule: [Zn+2] [Zn^2+]
- effect on TTP-dependent phosphorylation of 43K rapsyn / TTP-kinase activity (in words) [1]: inhibited; also recorded: prevented
- % inhibition of TTP-dependent phosphorylation of 43K rapsyn ([1]; 0.5-3 mM Zn2+, 8 μM 32P-TTP, Mg2+ independent): ~70%

Molecule: Nc1ncnc2c1ncn2[C@@H]1O[C@H](COP(=O)(O)OP(=O)(O)O[32P](=O)(O)O)[C@@H](O)[C@H]1O [^32P-ATP, [γ-^32P]-ATP, reference compound]
- phosphorylation of NDPK by the phosphodonor [3]: strongly phosphorylated
- concentration saturating 43K rapsyn phosphorylation ([2]; not yet saturated): > 200 µM

Molecule: Nc1nc2c(ncn2[C@@H]2O[C@@H]3COP(=O)(O)O[C@H]3[C@H]2O)c(=O)[nH]1 [cGMP]
- effect on TTP-dependent phosphorylation of 43K rapsyn / TTP-kinase activity (in words) [1]: did not drastically alter

Molecule: O=c1c(-c2ccc(O)cc2)coc2cc(O)cc(O)c12 [genisterin, genistein]
- effect on TTP-dependent phosphorylation of 43K rapsyn / TTP-kinase activity (in words) [1]: did not drastically alter

Molecule: Nc1ccn([C@@H]2O[C@H](COP(=O)(O)OP(=O)(O)OP(=O)(O)O)[C@@H](O)[C@H]2O)c(=O)n1 [CTP]
- effect on TTP-dependent phosphorylation of 43K rapsyn / TTP-kinase activity (in words) [1]: inhibits poorly

Molecule: O=S(=O)(c1cccc2c(I)cccc12)N1CCCNCC1 [ML7]
- effect on TTP-dependent phosphorylation of 43K rapsyn / TTP-kinase activity (in words) [1]: did not drastically alter

Molecule: O[C@@H](CS)[C@@H](O)CS [DTT]
- effect on TTP-dependent phosphorylation of 43K rapsyn / TTP-kinase activity (in words) [1]: partially inhibited
- % inhibition of TTP-kinase activity ([1]; 10 mM): 30-40%

Molecule: Clc1ccc(C(c2ccc(Cl)cc2)n2cc[n+](CC(OCc3ccc(Cl)cc3Cl)c3ccc(Cl)cc3Cl)c2)cc1 (centres unmarked) [calmidazolium]
- effect on TTP-dependent phosphorylation of 43K rapsyn / TTP-kinase activity (in words) [1]: did not drastically alter

Molecule: CC1CNCCN1S(=O)(=O)c1cccc2cnccc12 (centres unmarked) [H7]
- effect on TTP-dependent phosphorylation of 43K rapsyn / TTP-kinase activity (in words) [1]: did not drastically alter

Molecule: CN(C)CCCn1cc(C2=C(c3c[nH]c4ccccc34)C(=O)NC2=O)c2ccccc21 [GFX, bisindolylmaleimide I]
- effect on TTP-dependent phosphorylation of 43K rapsyn / TTP-kinase activity (in words) [1]: did not drastically alter

Molecule: COc1ccc(C[C@H]2NC[C@H](O)[C@H]2OC(C)=O)cc1 [anisomycin]
- effect on TTP-dependent phosphorylation of 43K rapsyn / TTP-kinase activity (in words) [1]: did not drastically alter

B1: 43K-rapsyn/ATP: 43K rapsyn phosphorylated with ^32P-ATP (protein, UniProt Q13702 2-412, looked up)
43 kDa receptor-associated …: GQDQTKQQIEKGLQLYQSNQTEKALQVWTKVLEKSSDLMGRFRVLGCLVTAHSEMGRYKEMLKFAVVQIDTARELEDADFLLESYLNLARSNEKLCEFHKTISYCKTCLGLPGTRAGAQLGGQVSLSMGNAFLGLSVFQKALESFEKALRYAHNNDDAMLECRVCCSLGSFYAQVKDYEKALFFPCKAAELVNNYGKGWSLKYRAMSQYHMAVAYRLLGRLGSAMECCEESMKIALQHGDRPLQALCLLCFADIHRSRGDLETAFPRYDSAMSIMTEIGNRLGQVQALLGVAKCWVARKALDKALDAIERAQDLAEEVGNKLSQLKLHCLSESIYRSKGLQRELRAHVVRFHECVEETELYCGLCGESIGEKNSRLQALPCSHIFHLRCLQNNGTRSCPNCRRSSMKPGFV
modifications: 32P-phosphorylated (ATP)
notes: 43K rapsyn phosphorylated with ^32P-ATP
- P-aa stability (base) [4]: base-labile
- P-aa stability (base) ([4]; listed as ATP-^32P-43K rapsyn): alkaline labile
- % 32P remaining ([4]; PVDF blot, 1 N KOH 46° C. 40 min, relative to control): 41 ± 1%
- % 32P remaining ([4]; PVDF blot, 1 N KOH 46° C. 120 min, relative to control): 18 ± 2%
- % 32P remaining ([4]; PVDF blot, 1 N KOH 46° C. 120 min, relative to control, listed as ATP-^32P-43K rapsyn): 18±2%
- P-aa stability (acid) [4]: acid-stable
- P-aa stability (acid) ([4]; listed as ATP-^32P-43K rapsyn): acid stable
- % 32P remaining ([4]; SDS-PAGE gel, 16% TCA, 90° C. 5 min, relative to control): 79 ± 5%
- % 32P remaining ([4]; SDS-PAGE gel, 16% TCA, 90° C. 5 min, relative to control, listed as ATP-^32P-43K rapsyn): 79±5%
- % 32P remaining ([4]; SDS-PAGE gel, 16% TCA, 90° C. 10 min, relative to control): 49 ± 9%
- % 32P remaining ([4]; SDS-PAGE gel, 16% TCA, 90° C. 10 min, relative to control, listed as ATP-^32P-43K rapsyn): 49±9%
- Paa/pH-stability ([4]; putative Paa listed in both acid- and base-stability analysis (ref. 45)): P-Ser and/or P-Thr

B2: 43K-rapsyn/TTP: 43K rapsyn phosphorylated with ^32P-TTP (protein, UniProt Q13702 2-412, looked up)
43 kDa receptor-associated …: B1 43 kDa receptor-associated …
modifications: 32P-phosphorylated (TTP)
notes: 43K rapsyn phosphorylated with ^32P-TTP
- Paa/pH-stability [4]: P-His and/or P-Lys
- % 32P remaining ([4]; 40 min): 96 ± 3%
